Results: patent US20260217701A1, “SELECTIVE BET INHIBITORS AND USES THEREOF” (Tay Therapeutics Limited, priority 2022, published 2026)
Where “and” joins values, the source holds several entries; their conditions need not be identical. Identical values can stand only once.

Test system: imiquimod-induced psoriasis
Assay: Imiquimod-induced psoriasis model
Format: in vivo, mice
Set-up: Spleen Weight / Spleen Weight Ratio: unit not given here
Conditions: for PASI Scores: IMI + Apremilast 3 mg/kg; for Mean scores of the presence of erythema on the skin of animals at the area of induction of psoriasis / Mean scores of the presence of induration on the skin of animals at the area of induction of psoriasis / Mean scores of the presence of peeling on the skin of animals at the area of induction of psoriasis: mean ± SEM
From the text: Imiquimod-induced psoriasis is a model of psoriasis in mice that induces psoriasis-like dermatitis. The pathology closes resembles human plaque-type psoriasis and is a valuable tool for testing new therapies against psoriasis. […] Compound A was formulated in a 5% DMSO/40% PEG-400/55% (0.9% NaCl w/v water) solution (Table 2F). Experimental groups for the study are outlined in Table 4. Prior to study initiation, the backs of all animals in the study were depilated to allow for induction of psoriasis and monitoring of disease progression.
Once assigned to experimental groups, on Day 1 and continuing through Day 14, topical imiquimod (IMI; Aldara™ containing 5% Imiquimod) was administered to the dorsal depilated animals, and animals in group 1 received topical administration of Excipial® hydrocream (65 mg). […] Clobetasol was applied topically for animals in group 11.
Body weights were recorded three times a week from Day 1 to Day 8, and daily from Day 8 until the study end at Day 15. At termination on D15 the spleen weight ratio was determined. Disease severity was assessed using the psoriasis area severity index (PASI) daily from Day 8 until study completion on Day 15. The PASI score was calculated based on three parameters (presence of erythema, induration of the skin, and peeling of the skin at the area of induction) on a scale of 0 to 4 (0=no more or absence, 1=low, 2=moderate, 3=high, 4=severe). The PASI score for each animal was calculated as the sum of the score of each parameter measured. The score of the use of enrichment (SUE) was also assessed daily from Day 8 to Day 15. At study completion on Day 15, animal behavior was evaluated using an open field to assess distance travelled, number scratching, and licking and rearing performed in 10 minutes. Upon study termination animals were sacrificed, the spleen was excised and weighed, and blood samples were collected. Serum was isolated from the blood sample for cytokine and other biomarker analysis. IL-1B, IL-6, IL-17, and TNF-α assayed using simple plex technique on an ELLA automated immunoassay system. IL-22 and IL-23 were assayed by ELISA.
The imiquimod-induced model of psoriasis was used to assess the efficacy of Compound A in treating psoriasis. […] Treatment started on Day 8 after induction so reference to day 1 of treatment is to Day 8 and day 7 of treatment is to Day 14.

[1] = IMI-psoriasis model, behavioral evaluation D15, 3 mg/kg, individual animals
[2] = IMI-psoriasis model, behavioral evaluation, 3 mg/kg, individual animals
[3] = IMI-psoriasis model, mice, 3 mg/kg, individual animals
[4] = IMI + 3 mg/kg, D8 (before start of treatment)

Which results are given for `CCOc1cc([C@@H](CS(C)(=O)=O)N2C(=O)c3cccc(NC(C)=O)c3C2=O)ccc1OC` [Apremilast, reference compound]?
Body Weight D1 (IMI + 3 mg/kg, Day 1 (before treatment start on Day 8), individual animals, 3 mg/kg, in g (unit assumed)): 18.04 and 18.00 and 18.05 and 18.89 and 15.16 and 17.91 and 18.62 and 18.72; Body Weight D3 (IMI + 3 mg/kg, Day 3 (before treatment start on Day 8), individual animals, 3 mg/kg, in g (unit assumed)): 15.91 and 16.38 and 17.39 and 17.17 and 13.24 and 16.46 and 17.63 and 16.03; Body Weight D5 (IMI + 3 mg/kg, Day 5 (before treatment start on Day 8), individual animals, 3 mg/kg, in g (unit assumed)): 16.70 and 17.24 and 17.88 and 17.91 and 13.95 and 16.38 and 17.65 and 16.94; Body Weight D7 (IMI + 3 mg/kg, Day 7 (before treatment start on Day 8), individual animals, 3 mg/kg, in g (unit assumed)): 16.55 and 16.74 and 17.25 and 17.69 and 15.07 and 16.92 and 17.97 and 17.32; Body Weight D8 (IMI + 3 mg/kg, Day 8 (first day of treatment), individual animals, 3 mg/kg, in g (unit assumed)): 16.41 and 16.59 and 17.27 and 17.43 and 13.81 and 17.05 and 17.50 and 16.19; Body Weight D9 (IMI + 3 mg/kg, Day 9, individual animals, 3 mg/kg): 16.75 and 17.41 (2×) and 17.44 and 17.12 and 13.85 and 17.04 and 16.34; Body Weight D10 (IMI + 3 mg/kg, Day 10, individual animals, 3 mg/kg, in g (unit assumed)): 17.13 and 17.32 and 17.55 and 17.39 and 13.82 and 17.24 and 17.62 and 17.09; Body Weight D11 (IMI + 3 mg/kg, Day 11, individual animals, 3 mg/kg, in g (unit assumed)): 16.87 and 17.60 and 17.50 and 17.32 and 14.44 and 17.59 and 17.99 and 17.89; Body Weight D12 (IMI + 3 mg/kg, Day 12, individual animals, 3 mg/kg, in g (unit assumed)): 17.32 and 18.46 and 17.58 and 17.84 and 14.88 and 18.39 and 18.34 and 18.22; Body Weight D13 (IMI + 3 mg/kg, Day 13, individual animals, 3 mg/kg, in g (unit assumed)): 17.57 and 18.62 and 18.39 and 18.19 and 14.70 and 18.17 and 18.61 and 18.32; Body Weight D14 (IMI + 3 mg/kg, Day 14, individual animals, 3 mg/kg, in g (unit assumed)): 17.89 and 18.64 and 18.56 and 18.40 and 15.26 and 17.85 and 18.49 and 18.20; Body Weight D15 (IMI + 3 mg/kg, Day 15, individual animals, 3 mg/kg): 18.27 and 18.85 (2×) and 18.94 and 15.48 and 18.37 and 18.62 and 18.57; MBWC D1-D8 (IMI + 3 mg/kg, body weight change Day 1 to Day 8 (before treatment), individual animals, 3 mg/kg): −1.63 and −1.41 and −0.78 and −1.46 and −1.35 and −0.86 and −1.12 and −2.53; MBWC D8-D15 (IMI + 3 mg/kg, body weight change Day 8 to Day 15 (treatment period), individual animals, 3 mg/kg): 1.86 and 2.26 and 1.67 (2×) and 1.42 and 1.32 and 1.12 and 2.38; PASI Scores (D8 (day treatment started), individual animals): 9 and 7 (4×) and 8 (2×) and 6; PASI Scores (D9, individual animals): 8 and 5 (2×) and 7 and 6 (3×) and 4; PASI Scores (D10, individual animals): 6 (2×) and 7 (2×) and 4 (4×); PASI Scores (D11, individual animals): 5 (4×) and 4 (4×); PASI Scores (D12, individual animals): 3 (4×) and 5 and 2 (2×) and 1; PASI Scores (D13, individual animals): 1 (3×) and 0 (3×) and 2 (2×); PASI Scores (D14, individual animals): 2 and 0 (3×) and 1 (4×); PASI Scores (D15, individual animals): 1 (3×) and 0 (5×); Use Enrichment D1 (IMI-psoriasis model, D1, 3 mg/kg, per cage (two animals)): 4.0; Use Enrichment D10 (IMI-psoriasis model, D10, 3 mg/kg, per cage (two animals)): 2.5 and 3.0 and 2.0; Use Enrichment D11 (IMI-psoriasis model, D11, 3 mg/kg, per cage (two animals)): 3.5 and 4.0 and 3.0; Use Enrichment D12 (IMI-psoriasis model, D12, 3 mg/kg, per cage (two animals)): 3.5 and 2.5 and 3.0; Use Enrichment D13 (IMI-psoriasis model, D13, 3 mg/kg, per cage (two animals)): 4.0; Use Enrichment D14 (IMI-psoriasis model, D14, 3 mg/kg, per cage (two animals)): 4.0; Use Enrichment D15 (IMI-psoriasis model, D15, 3 mg/kg, per cage (two animals)): 4.0; Number Licking [1]: 4 (2×) and 5 and 1 and 2 (2×) and 3 (2×); Number Licking + Scratching [1]: 5 and 6 and 1 and 2 (2×) and 7 and 3 (2×); Number Scratching [1]: 1 (2×) and 0 (5×) and 3; Distance Traveled [2]: 10 m and 13 m and 8 m and 11 m (2×) and 17 m and 9 m and 15 m; Number Rearings [2]: 20 and 58 and 21 and 42 and 81 and 13 and 60 and 12; Use Enrichment Mean D1-D8 (IMI-psoriasis model, mean D1-D8, 3 mg/kg, per cage (two animals)): 2.50 and 2.00; Use Enrichment Mean D8-D15 (IMI-psoriasis model, mean D8-D15, 3 mg/kg, per cage (two animals)): 3.07 and 3.36 and 2.93; Spleen Weight [3]: 180.97 and 286.06 and 424.79 and 208.70 and 207.33 and 227.51 and 223.09 and 221.44; Spleen Weight Ratio [3]: 990.53 and 1517.56 and 2242.82 and 1107.16 and 1339.34 and 1238.49 and 1198.12 and 1192.46; Mean scores of the presence of erythema on the skin of animals at the area of induction of psoriasis [4]: 2.1 ± 0.1; Mean scores of the presence of induration on the skin of animals at the area of induction of psoriasis [4]: 3.0 ± 0.0; Mean scores of the presence of peeling on the skin of animals at the area of induction of psoriasis [4]: 2.5 ± 0.2; Mean scores of the presence of erythema on the skin of animals at the area of induction of psoriasis (IMI + 3 mg/kg, D9): 1.5 ± 0.2; Mean scores of the presence of induration on the skin of animals at the area of induction of psoriasis (IMI + 3 mg/kg, D9): 2.3 ± 0.2; Mean scores of the presence of peeling on the skin of animals at the area of induction of psoriasis (IMI + 3 mg/kg, D9): 2.1 ± 0.2; Mean scores of the presence of erythema on the skin of animals at the area of induction of psoriasis (IMI + 3 mg/kg, D10): 1.6 ± 0.2; Mean scores of the presence of induration on the skin of animals at the area of induction of psoriasis (IMI + 3 mg/kg, D10): 2.0 ± 0.2; Mean scores of the presence of peeling on the skin of animals at the area of induction of psoriasis (IMI + 3 mg/kg, D10): 1.6 ± 0.3; Mean scores of the presence of erythema on the skin of animals at the area of induction of psoriasis (IMI + 3 mg/kg, D11): 1.4 ± 0.2; Mean scores of the presence of induration on the skin of animals at the area of induction of psoriasis (IMI + 3 mg/kg, D11): 1.8 ± 0.2; Mean scores of the presence of peeling on the skin of animals at the area of induction of psoriasis (IMI + 3 mg/kg, D11): 1.4 ± 0.2; Mean scores of the presence of erythema on the skin of animals at the area of induction of psoriasis (IMI + 3 mg/kg, D12): 0.75 ± 0.2; Mean scores of the presence of induration on the skin of animals at the area of induction of psoriasis (IMI + 3 mg/kg, D12): 0.9 ± 0.2; Mean scores of the presence of peeling on the skin of animals at the area of induction of psoriasis (IMI + 3 mg/kg, D12): 1.1 ± 0.1; Mean scores of the presence of erythema on the skin of animals at the area of induction of psoriasis (IMI + 3 mg/kg, D13): 0.3 ± 0.2; Mean scores of the presence of induration on the skin of animals at the area of induction of psoriasis (IMI + 3 mg/kg, D13): 0.4 ± 0.2; Mean scores of the presence of peeling on the skin of animals at the area of induction of psoriasis (IMI + 3 mg/kg, D13): 0.3 ± 0.2; Mean scores of the presence of erythema on the skin of animals at the area of induction of psoriasis (IMI + 3 mg/kg, D14): 0.0 ± 0.0; Mean scores of the presence of induration on the skin of animals at the area of induction of psoriasis (IMI + 3 mg/kg, D14): 0.4 ± 0.2; Mean scores of the presence of peeling on the skin of animals at the area of induction of psoriasis (IMI + 3 mg/kg, D14): 0.4 ± 0.2; Mean scores of the presence of erythema on the skin of animals at the area of induction of psoriasis (IMI + 3 mg/kg, D15): 0.1 ± 0.1; Mean scores of the presence of induration on the skin of animals at the area of induction of psoriasis (IMI + 3 mg/kg, D15): 0.1 ± 0.1; Mean scores of the presence of peeling on the skin of animals at the area of induction of psoriasis (IMI + 3 mg/kg, D15): 0.1 ± 0.1; Mean PASI Scores in IMI-Psoriasis Model (mice, IMI + 3 mg/kg, D8 (before start of treatment)): 7.4 ± 0.3; Mean PASI Scores in IMI-Psoriasis Model (mice, IMI + 3 mg/kg, D9): 5.9 ± 0.4; Mean PASI Scores in IMI-Psoriasis Model (mice, IMI + 3 mg/kg, D10): 5.3 ± 0.5; Mean PASI Scores in IMI-Psoriasis Model (mice, IMI + 3 mg/kg, D11): 4.5 ± 0.2; Mean PASI Scores in IMI-Psoriasis Model (mice, IMI + 3 mg/kg, D12): 2.8 ± 0.4; Mean PASI Scores in IMI-Psoriasis Model (mice, IMI + 3 mg/kg, D13): 0.9 ± 0.3; Mean PASI Scores in IMI-Psoriasis Model (mice, IMI + 3 mg/kg, D14): 0.8 ± 0.3; Mean PASI Scores in IMI-Psoriasis Model (mice, IMI + 3 mg/kg, D15): 0.4 ± 0.2
